Source: US9416129B2, “Tricyclic substituted thiadiazine dioxide compounds as BACE inhibitors, compositions and their use” (Merck Sharp & Dohme Corp., priority 2012, dated 2016)
pKi: −log10 of the molar value.

Legend:
human autoBACE-2 = human autoBACE-2 (Homo sapiens (Human), UniProt Q9Y5Z0); test: BACE-2 assay (BACE-HTRF, time-resolved endpoint proteolysis); type: biochemical; settings: Ki calculated from IC50 using the Cheng-Prusoff equation; read-out: BACE2 Ki
Description: Inhibitor IC50s at purified human autoBACE-2 are determined in a time-resolved endpoint proteolysis assay that measures hydrolysis of the QSY7-[…]-Eu-amide FRET peptide substrate (BACE-HTRF assay). […] DMSO is present at 5% final concentration in the assay. Following laser excitation of sample wells at 320 nm, the fluorescence signal at 620 nm is collected for 400 ms following a 50 μs delay on a RUBYstar HTRF plate reader (BMG Labtechnologies). Raw RFU data is normalized to maximum (1.0 nM BACE/DMSO) and minimum (no enzyme/DMSO) RFU values. […] The Ki values are calculated from the IC50 using the Cheng-Prusoff equation.

[1] = molecular target: soluble human BACE1 catalytic domain (Homo sapiens (Human), UniProt P56817); test: BACE1 HTRF FRET assay; type: biochemical; settings: Ki calculated from IC50 using the Cheng-Prusoff equation
From the text: Na^+-Acetate pH 5.0; 1% Brij-35; Glycerol; Dimethyl Sulfoxide (DMSO); Recombinant human soluble BACE1 catalytic domain (>95% pure); APP Swedish mutant peptide substrate (QSY7-APP^swe-Eu): QSY7-[…]-Europium-amide.
A homogeneous time-resolved FRET assay can be used to determine IC50 values for inhibitors of the soluble human BACE1 catalytic domain. This assay monitors the increase of 620 nm fluorescence that resulted from BACE1 cleavage of an APPswedish APP^swe mutant peptide FRET substrate (QSY7-[…]-Europium-amide). This substrate contains an N-terminal QSY7 moiety that serves as a quencher of the C-terminal Europium fluorophore (620 nm Em). In the absence of enzyme activity, 620 nm fluorescence is low in the assay and increased linearly over 3 hours in the presence of uninhibited BACE1 enzyme Inhibition of BACE1 cleavage of the QSY7-APP^swe-Eu substrate by inhibitors is manifested as a suppression of 620 nm fluorescence.
Varying concentrations of inhibitors at 3× the final desired concentration in a volume of 10 ul are preincubated with purified human BACE1 catalytic domain (3 nM in 10 μl) for 30 minutes at 30° C. in reaction buffer containing 20 mM Na-Acetate pH 5.0, 10% glycerol, 0.1% Brij-35 and 7.5% DSMO. Reactions are initiated by addition of 10 μl of 600 nM QSY7-APP^swe-Eu substrate (200 nM final) to give a final reaction volume of […] in a 384 well Nunc HTRF plate. The reactions are incubated at 30° C. for 1.5 hours. The 620 nm fluorescence is then read on a Rubystar HTRF plate reader (BMG Labtechnologies) using a 50 millisecond delay followed by a 400 millisecond acquisition time window. Inhibitor IC50 values are derived from non-linear regression analysis of concentration response curves.

Chain of human autoBACE-2 (Q9Y5Z0 63-473 limits assumed): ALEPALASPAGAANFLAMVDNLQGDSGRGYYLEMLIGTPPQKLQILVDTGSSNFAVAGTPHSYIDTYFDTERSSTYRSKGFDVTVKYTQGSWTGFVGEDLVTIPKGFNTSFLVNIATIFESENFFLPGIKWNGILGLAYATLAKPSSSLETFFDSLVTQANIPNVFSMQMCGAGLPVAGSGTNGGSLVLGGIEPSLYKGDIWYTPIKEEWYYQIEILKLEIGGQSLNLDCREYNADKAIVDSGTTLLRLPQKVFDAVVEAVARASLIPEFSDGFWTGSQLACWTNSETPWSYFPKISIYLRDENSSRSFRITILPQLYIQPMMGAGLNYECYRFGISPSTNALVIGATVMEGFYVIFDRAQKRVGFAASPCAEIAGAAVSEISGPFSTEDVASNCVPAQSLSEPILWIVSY
Chain of soluble human BACE1 catalytic domain (P56817 75-416): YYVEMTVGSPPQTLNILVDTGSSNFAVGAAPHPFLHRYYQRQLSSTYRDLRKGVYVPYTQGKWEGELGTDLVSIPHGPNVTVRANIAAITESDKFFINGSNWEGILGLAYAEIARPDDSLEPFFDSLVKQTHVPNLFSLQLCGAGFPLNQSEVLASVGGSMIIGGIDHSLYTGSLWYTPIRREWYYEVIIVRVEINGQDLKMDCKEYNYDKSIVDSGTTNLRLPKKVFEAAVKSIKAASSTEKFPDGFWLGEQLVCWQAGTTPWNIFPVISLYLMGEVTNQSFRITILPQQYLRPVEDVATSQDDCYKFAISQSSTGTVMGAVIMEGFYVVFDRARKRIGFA

SMILES	pKi (human autoBACE-2)	pKi [1]
Cc1nnc(-c2cccc(-c3cc(F)c([C@]4(C)CS(=O)(=O)N(C)C(=N)N4)s3)c2)o1 [Example 16]	8.38	6.63
CN1C(=N)N[C@](C)(c2sc(-c3cccc(-c4nnco4)c3)cc2F)CS1(=O)=O [Example 2]	7.86	8.77
CN1C(=N)N[C@](C)(c2cc(-c3cncc(-c4cnco4)c3)cs2)CS1(=O)=O [Example 22]	7.01	7.07
CN1C(=N)N[C@](C)(c2sc(-c3cc(F)cc(-c4nnco4)c3)cc2Cl)CS1(=O)=O [Example 28]	9.55	9.30
CN1C(=N)N[C@](C)(c2sc(-c3cccc(-c4nc(C5CC5)no4)c3)cc2F)CS1(=O)=O [Example 40]	8.02	6.21
CN1C(=N)N[C@](C)(c2cc(-c3cc(F)cc(-c4cnco4)c3)cs2)CS1(=O)=O [Example 24]	7.74	7.09
CN1C(=N)N[C@](C)(c2sc(-c3cc(-c4nnco4)ncc3F)cc2F)CS1(=O)=O [Example 59]	7.04	6.97
CN1C(=N)N[C@](C)(c2sc(-c3cccc(-c4noc(C5CC5)n4)c3)cc2F)CS1(=O)=O [Example 45]	8.52	6.49
CN1C(=N)N[C@](C)(c2sc(-c3cccc(-c4nc(C5CC5)no4)c3)cc2Cl)CS1(=O)=O [Example 39]	8.00	6.38
Cc1noc(-c2cc(-c3cc(F)c([C@]4(C)CS(=O)(=O)N(C)C(=N)N4)s3)ccn2)n1 [Example 50]	8.64	7.25
CN1C(=N)N[C@](C)(c2sc(-c3cncc(-c4cnco4)c3)cc2F)CS1(=O)=O [Example 21]	7.80	7.74
CN1C(=N)N[C@](C)(c2sc(-c3ccc(F)c(-c4nnco4)c3)cc2F)CS1(=O)=O [Example 34]	7.96	8.17
Cc1noc(-c2cccc(-c3cc(Cl)c([C@]4(C)CS(=O)(=O)N(C)C(=N)N4)s3)c2)n1 [Example 37]	8.34	7.59
CN1C(=N)N[C@](C)(c2ncc(-c3cccc(-c4nnco4)c3)s2)CS1(=O)=O [Example 27]	6.82	7.86
CN1C(=N)N[C@](C)(c2sc(-c3cccc(-c4ncno4)c3)cc2F)CS1(=O)=O [Example 48]	9.20	9.06
CN1C(=N)N[C@](C)(c2sc(-c3cc(-c4nnco4)ncc3F)cc2Cl)CS1(=O)=O [Example 58]	7.18	7.17
CN1C(=N)N[C@](C)(c2sc(-c3cccc(-c4nnco4)c3F)cc2F)CS1(=O)=O [Example 36]	6.61	5.94
CN1C(=N)N[C@](C)(c2sc(-c3cccc(-c4nnco4)c3F)cc2Cl)CS1(=O)=O [Example 35]	7.52	7.22
CN1C(=N)N[C@](C)(c2cc(-c3cc(F)cc(-c4nnco4)c3)cs2)CS1(=O)=O [Example 43]	8.19	8.06
CN1C(=N)N[C@](C)(c2cc(-c3cccc(-c4nnco4)c3)cs2)CS1(=O)=O [Example 19]	7.28	7.72
Cc1nnc(-c2cccc(-c3cc(Cl)c([C@]4(C)CS(=O)(=O)N(C)C(=N)N4)s3)c2)o1 [Example 53]		6.89

Second part, the molecule after the results:

pKi (human autoBACE-2)	pKi [1]	SMILES
5.98	5.68	CN1C(=N)N[C@](C)(c2sc(-c3ccc(-c4cccnc4)cc3)cc2Cl)CS1(=O)=O [Example 64]
6.65	6.94	CN1C(=N)N[C@](C)(c2sc3c(-c4ccc(-c5ncco5)cc4)nccc3c2Cl)CS1(=O)=O [Example 100]
8.17	6.37	CN1C(=N)N[C@](C)(c2sc3c(-c4ccc(-c5cc(C(F)(F)F)n[nH]5)cc4)nccc3c2Cl)CS1(=O)=O [Example 98]
6.91	6.70	CN1C(=N)N[C@](C)(c2sc(-c3ccnc(-c4cccnc4)c3)cc2F)CS1(=O)=O [Example 74]
6.35	6.95	Cc1cocc1-c1ccc(-c2nccc3c(Cl)c([C@]4(C)CS(=O)(=O)N(C)C(=N)N4)sc23)c(F)c1 [Example 110]
8.62	8.19	CN1C(=N)N[C@](C)(c2sc(-c3cccc(-c4ccno4)c3)cc2Cl)CS1(=O)=O [Example 13]
5.69	5.01	CN1CCN(c2ccc(-c3cccc4c(F)c([C@]5(C)CS(=O)(=O)N(C)C(=N)N5)sc34)cc2)CC1 [Example 95]
6.83	7.72	CN1C(=N)N[C@](C)(c2sc3c(-c4ccc(-n5ccnn5)cc4)cccc3c2F)CS1(=O)=O [Example 83]
7.66	6.55	CN1C(=N)N[C@](C)(c2sc3c(-c4ccc(C5CC5)nc4)nccc3c2Cl)CS1(=O)=O [Example 79]
7.07	5.79	CN1C(=N)N[C@](C)(c2sc3c(-c4ccc(-c5nccn5C)cc4)nccc3c2Cl)CS1(=O)=O [Example 105]
6.91	6.47	CN1C(=N)N[C@](C)(c2sc(-c3ccnc(-c4ccncc4)c3)cc2F)CS1(=O)=O [Example 73]
5.42	5.04	Cc1cnc(-c2ccc(-c3cccc4c(F)c([C@]5(C)CS(=O)(=O)N(C)C(=N)N5)sc34)cc2)nc1 [Example 88]
5.87	6.10	CN1C(=N)N[C@](C)(c2sc3c(-c4ccc(-c5nccs5)cc4)cccc3c2F)CS1(=O)=O [Example 91]
8.80	6.79	CN1C(=N)N[C@](C)(c2sc(-c3cccc(-c4ccccc4)c3)cc2Cl)CS1(=O)=O [Example 62]
6.02	7.52	CN1C(=N)N[C@](C)(c2sc3c(-c4ccc(-n5cccn5)cc4)nccc3c2Cl)CS1(=O)=O [Example 102]
5.33	5.19	CN1C(=N)N[C@](C)(c2sc3c(-c4ccc(N5CCS(=O)(=O)CC5)cc4)cccc3c2F)CS1(=O)=O [Example 85]

pKi (human autoBACE-2)	pKi [1]	SMILES
7.02		Cc1nonc1N1CCN(c2nccc3c(Cl)c([C@]4(C)CS(=O)(=O)N(C)C(=N)N4)sc23)CC1 [Example 120]
6.94	6.02	CN1C(=N)N[C@](C)(c2sc3c(-c4ccc(C5CC(=O)N5)cc4)nccc3c2Cl)CS1(=O)=O (stereo partly shown) [Example 101]
6.60	6.98	CN1C(=N)N[C@](C)(c2sc3c(-c4ccc(-c5cncs5)cc4F)nccc3c2Cl)CS1(=O)=O [Example 113]
8.24	7.36	CN1C(=N)N[C@](C)(c2ncc(-c3cccc(-c4ncco4)c3)s2)CS1(=O)=O [Example 26]
5.78	5.78	CN1C(=N)N[C@](C)(c2sc3c(-c4ccc(-n5nccn5)cc4)cccc3c2F)CS1(=O)=O [Example 92]
6.26	5.64	CN1C(=N)N[C@](C)(c2sc(-c3ccc(-n4nccn4)cc3)cc2Cl)CS1(=O)=O [Example 67]
6.38	6.72	Cc1cnn(-c2ccc(-c3nccc4c(Cl)c([C@]5(C)CS(=O)(=O)N(C)C(=N)N5)sc34)c(F)c2)c1 [Example 119]
6.12	6.45	CN1C(=N)N[C@](C)(c2sc3c(-c4ccc(-c5ccncc5)cc4)cccc3c2F)CS1(=O)=O [Example 84]
8.33	7.52	CN1C(=N)N[C@](C)(c2sc(-c3cccc(-n4nccn4)c3)cc2Cl)CS1(=O)=O [Example 63]
6.57	7.71	CN1C(=N)N[C@](C)(c2sc3c(-c4ccc(-c5ccoc5)cc4F)nccc3c2Cl)CS1(=O)=O [Example 107]
7.59	7.17	Cc1cn(-c2cc(-c3cc(F)c([C@]4(C)CS(=O)(=O)N(C)C(=N)N4)s3)ccn2)cn1 [Example 72]
6.47	5.37	CN1C(=N)N[C@](C)(c2sc(-c3ccc(-c4ncco4)cc3)cc2Cl)CS1(=O)=O [Example 69]
6.67	6.98	CN1C(=N)N[C@](C)(c2sc3c(-c4ccc(-c5ncco5)cc4)cccc3c2F)CS1(=O)=O [Example 90]
5.58	5.42	CN1CCN(c2ccc(-c3cccc4c(F)c([C@]5(C)CS(=O)(=O)N(C)C(=N)N5)sc34)cn2)CC1 [Example 93]
8.80	7.24	CN1C(=N)N[C@](C)(c2sc(-c3cccc(-n4cccn4)c3)cc2Cl)CS1(=O)=O [Example 60]
8.42		Cc1nnc(-c2cccc(-c3cc(Cl)c([C@]4(C)CS(=O)(=O)N(C)C(=N)N4)s3)c2)o1 [Example 15]
